Measured values: US20050239656A1, “Pyridine compounds or salts thereof and herbicides containing the same” (priority 2002, published 2005)

Legend:
barnyardgrass [1] = experiment: Test Example 1: foliage treatment, upland pot test; assay type: in vivo, Echinochloa crus-galli L.; conditions: active ingredient 500 g/ha, observed 18th to 23rd day, 0 = non-treated, 100 = complete kill
Procedure, shortened: (§1)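 Sow in upland field soil; grow to leaf stage (barnyardgrass 1.3–2.8, soybean 0.1–0.4, wheat 1.3–2.4, rice 1.2–2.6); spray foliage with compound in water, 500 L/ha, spreader 0.1% (v/v); assess visually at 18–23 d, 0 (as untreated) to 100 (full kill).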

crabgrass [2] = experiment: Test Example 1: foliage treatment, upland pot test; assay type: in vivo, Digitaria sanguinalis L.; conditions: active ingredient 500 g/ha, observed 18th to 23rd day, 0 = non-treated, 100 = complete kill
green foxtail [3] = experiment: Test Example 1: foliage treatment, upland pot test; assay type: in vivo, Setaria viridis L.; conditions: active ingredient 500 g/ha, observed 18th to 23rd day, 0 = non-treated, 100 = complete kill
redroot pigweed [4] = experiment: Test Example 1: foliage treatment, upland pot test; assay type: in vivo, Amaranthus retroflexus L.; conditions: active ingredient 500 g/ha, observed 18th to 23rd day, 0 = non-treated, 100 = complete kill
prickly sida [5] = experiment: Test Example 1: foliage treatment, upland pot test; assay type: in vivo, Sida spinosa L.; conditions: active ingredient 500 g/ha, observed 18th to 23rd day, 0 = non-treated, 100 = complete kill
velvetleaf [6] = experiment: Test Example 1: foliage treatment, upland pot test; assay type: in vivo, Abutilon theophrasti MEDIC.; conditions: active ingredient 500 g/ha, observed 18th to 23rd day, 0 = non-treated, 100 = complete kill
tall morningglory = experiment: Test Example 1: foliage treatment, upland pot test; assay type: in vivo, Ipomoea purpurea L.; conditions: active ingredient 500 g/ha, observed 18th to 23rd day, 0 = non-treated, 100 = complete kill
Description: Upland field soil was put into a 1/170,000 ha pot, and seed of various plants were sown. Then, when the plants reached predetermined leaf stages ((1) barnyardgrass: 1.3 to 2.8 leaf stages, (2) crabgrass: 1.0 to 2.8 leaf stages, (3) green foxtail: 1.3 to 2.6 leaf stages, (4) redroot pigweed: 0.1 to 1.2 leaf stages, (5) prickly sida: 0.1 to 1.2 leaf stages, (6) velvetleaf: 0.1 to 1.2 leaf stages, (7) tall morningglory: 0.1 to 1.5 leaf stages, (8) rice: 1.2 to 2.6 leaf stages, (9) wheat: 1.3 to 2.4 leaf stages, (10) corn, 2.1 to 3.2 leaf stages, (11) soybean: 0.1 to 0.4 leaf stage), a wettable powder or emulsifiable concentrate having the compound of the present invention formulated in accordance with a usual formulation method, was weighed so that the active ingredient would be a predetermined amount, and diluted with water in an amount of 500 L/ha. To the diluted solution, 0.1% (v/v) of agricultural spreader was added. The herbicide thus adjusted was applied by a small size sprayer for foliage treatment. On the 18th to 23rd days after the application of the herbicide, the growth of the respective plants was visually observed, and the herbicidal effects were evaluated by the growth controlling degrees (%) ranging from 0 (equivalent to the non-treated plot) to 100 (complete kill), whereby the results shown in Table 3, were obtained.

rice [7] = experiment: Test Example 1: foliage treatment, upland pot test; assay type: in vivo, Oryza sativa L.; conditions: crop, active ingredient 500 g/ha, observed 18th to 23rd day, 0 = non-treated, 100 = complete kill
Procedure, shortened: as §1

corn [8] = experiment: Test Example 1: foliage treatment, upland pot test; assay type: in vivo, Zea mays L.; conditions: crop, active ingredient 500 g/ha, observed 18th to 23rd day, 0 = non-treated, 100 = complete kill
Procedure, shortened: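 In this upland pot foliage test, corn plants at 2.1 to 3.2 leaf stages were sprayed by a small size sprayer. The spray was a conventionally formulated wettable powder or emulsifiable concentrate weighed to a set active ingredient amount, diluted in water at 500 L/ha, plus 0.1% (v/v) agricultural spreader. Visual assessment on days 18 to 23 gave growth controlling degree (%), where 0 equals untreated and 100 means complete kill.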

soybean [9] = experiment: Test Example 1: foliage treatment, upland pot test; assay type: in vivo, Glycine max Merr.; conditions: crop, active ingredient 500 g/ha, observed 18th to 23rd day, 0 = non-treated, 100 = complete kill
Procedure, shortened: as §1

barnyardgrass [10] = experiment: Test Example 2: soil surface treatment, upland pot test; assay type: in vivo, Echinochloa crus-galli L.; conditions: active ingredient 1000 g/ha, observed 20th to 28th day, 0 = non-treated, 100 = complete kill
Procedure, shortened: (§2)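 Readout was visual percent growth control (0 matching untreated, 100 complete kill) at days 20–28. Compound, as emulsifiable concentrate or wettable powder at a preset active-ingredient rate in 1,500 L/ha water, was sprayed onto sown upland soil one day after sowing.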

crabgrass [11] = experiment: as above; assay type: in vivo, Digitaria sanguinalis L.; conditions: active ingredient 1000 g/ha, observed 20th to 28th day
Procedure, shortened: as §2

green foxtail [12] = experiment: as above; assay type: in vivo, Setaria viridis L.; conditions: active ingredient 1000 g/ha, observed 20th to 28th day
Procedure, shortened: as §2

redroot pigweed [13] = experiment: as above; assay type: in vivo, Amaranthus retroflexus L.; conditions: active ingredient 1000 g/ha, observed 20th to 28th day
Procedure, shortened: as §2

prickly sida [14] = experiment: as above; assay type: in vivo, Sida spinosa L.; conditions: active ingredient 1000 g/ha, observed 20th to 28th day
Procedure, shortened: as §2

velvetleaf [15] = experiment: as above; assay type: in vivo, Abutilon theophrasti MEDIC.; conditions: active ingredient 1000 g/ha, observed 20th to 28th day
Procedure, shortened: as §2

rice [16] = experiment: as above; assay type: in vivo, Oryza sativa L.; conditions: active ingredient 1000 g/ha, observed 20th to 28th day
Procedure, shortened: as §2

wheat = experiment: as above; assay type: in vivo, Triticum spp.; conditions: active ingredient 1000 g/ha, observed 20th to 28th day
Procedure, shortened: as §2

corn [17] = experiment: as above; assay type: in vivo, Zea mays L.; conditions: active ingredient 1000 g/ha, observed 20th to 28th day
Procedure, shortened: as §2

soybean [18] = experiment: as above; assay type: in vivo, Glycine max Merr.; conditions: active ingredient 1000 g/ha, observed 20th to 28th day
Procedure, shortened: as §2

barnyardgrass [19] = experiment: Test Example 3: paddy pot test, application under submerged conditions; assay type: in vivo, Echinochloa crus-galli L.; conditions: active ingredient 500 g/ha; submerged application at 0.5 leaf stage; visually observed 14 days after application; 0 = non-treated, 100 = complete kill
Procedure, shortened: (§3)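 Visual rating of growth control (0% equals untreated, 100% complete kill) made 14 days after treatment. Compound, formulated as wettable powder or emulsifiable concentrate and diluted in water, was pipetted under submerged conditions at predetermined active-ingredient doses once weeds reached 0.5-leaf (barnyardgrass, bulrush) or primary-leaf (wapato, from tubers) stage. Pots of greenhouse paddy soil held 3–4 cm flooding.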

japanese bulrush = experiment: as above; assay type: in vivo, Scirpus juncoides; conditions: active ingredient 500 g/ha; submerged application at 0.5 leaf stage; visually observed 14 days after application; 0 = non-treated, 100 = complete kill
Procedure, shortened: as §3

japanese ribbon wapato = experiment: as above; assay type: in vivo, Sagittaria pygniaea; conditions: active ingredient 500 g/ha; submerged application at primary leaf stage; visually observed 14 days after application; 0 = non-treated, 100 = complete kill
Procedure, shortened: as §3

rice (var. Nihonbare) = experiment: Test Example 3: paddy pot test, transplanted rice; assay type: in vivo, Oryza sativa L.; conditions: active ingredient 500 g/ha, applied 4th day after transplantation, visually observed 21st day after application, 0 = non-treated, 100 = complete kill
Procedure, shortened: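 Visual crop-injury rating (0 = as untreated, 100 = complete kill, %) taken 21 days post-application. Treatment: formulated compound, water-diluted, pipetted into 3–4 cm flood water at a preset active-ingredient dose, 4 days after transplanting 2-leaf Nihonbare rice 3 cm deep in puddled paddy soil.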

SMILES | Growth controlling degree (%) Barnyardgrass (barnyardgrass [1]) | Growth controlling degree (%) Crabgrass (crabgrass [2]) | Growth controlling degree (%) Green foxtail (green foxtail [3]) | Growth controlling degree (%) Redroot pigweed (redroot pigweed [4]) | Growth controlling degree (%) Prickly sida (prickly sida [5]) | Growth controlling degree (%) Velvetleaf (velvetleaf [6]) | Growth controlling degree (%) Tall morningglory (tall morningglory) | Growth controlling degree (%) Rice (rice [7]) | Growth controlling degree (%) Corn (corn [8]) | Growth controlling degree (%) Soybean (soybean [9]) | Growth controlling degree (%) Barnyardgrass (barnyardgrass [10]) | Growth controlling degree (%) Crabgrass (crabgrass [11]) | Growth controlling degree (%) Green foxtail (green foxtail [12]) | Growth controlling degree (%) Redroot pigweed (redroot pigweed [13]) | Growth controlling degree (%) Prickly sida (prickly sida [14]) | Growth controlling degree (%) Velvetleaf (velvetleaf [15]) | Growth controlling degree (%) Rice (rice [16]) | Growth controlling degree (%) wheat (wheat) | Growth controlling degree (%) Corn (corn [17]) | Growth controlling degree (%) Soyabean (soybean [18]) | further results
CC(C(=O)N(C)C(c1cnccc1C(F)(F)F)C(C)C)c1ccccc1 (stereo not drawn) [I-12] | 50% | 95% | 60% | 50% | 60% | 80% | 70% | 0% | 10% | 30% | 100% | 100% | 100% | 90% | 90% | 80% | 10% | 40% | 0% | 20% | Growth controlling degree (%) Barnyardgrass (barnyardgrass [19]): 100%; Growth controlling degree (%) Japanese bulrush (japanese bulrush): 100%; Growth controlling degree (%) Japanese ribbon wapato (japanese ribbon wapato): 70%; Growth controlling degree (%) Rice (rice (var. Nihonbare)): 30%
CC(C)C(c1cnccc1C(F)(F)F)N(C)C(=O)Cc1c(F)cccc1F (stereo not drawn) [I-13] | 80% | 80% | 80% | 80% | 70% | 80% | 95% | 20% | 70% | 90% | 100% | 100% | 100% | 90% | 90% | 100% | 30% | 98% | 40% | 20% | Growth controlling degree (%) Barnyardgrass (barnyardgrass [19]): 100%; Growth controlling degree (%) Japanese bulrush (japanese bulrush): 95%; Growth controlling degree (%) Japanese ribbon wapato (japanese ribbon wapato): 90%; Growth controlling degree (%) Rice (rice (var. Nihonbare)): 30%
